{"source": "patent US20230248657A1", "about": "“METHODS OF ADMINISTERING TASTE MASKED PHENYLBUTYRATE AND COMPOSITIONS THEREFOR” (Acer Therapeutics Inc., priority 2020, published 2023)", "assay": "Multi-dose plasma PK of PBA, GPB vs. BUPHENYL (NaPB), TID, fed", "type": "in vivo, human", "conditions": "GPB avg. dose 13.5 TID, N = 44, arithmetic mean"}
{"smiles": "O=C(CCCc1ccccc1)OCC(COC(=O)CCCc1ccccc1)OC(=O)CCCc1ccccc1", "note": "[GPB, glycerol phenylbutyrate]", "values": [{"measurement": "Plasma PBA AUC0-24", "result": 443, "unit": "µg·h/mL"}, {"measurement": "Plasma PBA Cmax", "result": 51.9, "unit": "µg/mL"}, {"measurement": "Plasma PBA Tmax", "result": 8.0, "unit": "h"}]}
